Like-named read-outs stand apart in the source and are kept apart here.
Test system: A549 cells
Test: MTT assay, percent survival of A549 cells
Type: cell-based
Protocol: 1. Prepare a suspension of A549 cells at 2×10^5 cells per mL in supplemented DMEM/F12 growth medium.
2. Plate 2×10^4 cells per well in a 96 well cell culture plate by adding 100 μL of stock suspension to each well.
3. For each platinum compound (already in solution), prepare a readily usable stock solution in DMEM/F12 medium.
4. For each compound generate triplicate trials of 0, 10, 20, 30, 40, 50, 60, and 70 μM concentration. This is achieved in situ by adding appropriate volumes of stock solution to each well along with the volume of untreated medium necessary to generate the desired concentration in a final volume of 200 μL.
5. Gently agitate plates to mix contents. Incubate at 37° C., 7% CO2 for 45 hours.
6. Add 20 μL of 5 mg/mL MTT solution (in PBS) to each well.
7. Gently agitate plates to mix contents and incubate an additional 3 hours to allow product development.
8. Remove plates from incubator and agitate to cause settling of formazan product.
9. Aspirate out liquid contents of each well using needle and syringe and discard.
10. Add 200 μL DMSO to each well to dissolve formazan product.
11. Agitate plates until all of the formazan product is in solution and no purple crystals remain on the bottom surface of the wells.
12. Read the absorbance of each well at […] using Varian software for Cary 50 UV-vis Spectrophotometer with fiber optic probe accessory.
(§1) MTT assays are used for the quantitative determination of cellular proliferation and activation and for the quantitation of in vitro tumor cell sensitivity to anti-cancer compounds. The assay is based on the cleavage of the yellow tetrazolium salt MTT into purple colored formazan by metabolically active cells. Solubilized formazan product can be photometrically quantitated using an ELISA plate reader. A decrease in the number of living cells results in a decrease in total metabolic activity which leads to a decrease in color formation. Platinum complexes of the present invention were tested in MTT assays using A549 cells to determine anti-cancer cell activity. […] FIGS. 1, 2, and 4 show percent survival versus platinum complex concentration in graphical form.
as §1, with “FIGS. 8, 9,” for “FIGS. 1, 2,”, “and 11” for “and 4”

## Cn1c(=O)c2[nH]cnc2n(C)c1=O [Theophylline]
Table 9, A549, 10 μM
  Average Absorbance: 0.5681
  Percent Survival: 89.1%
Table 9, A549, 20 μM
  Average Absorbance: 0.3864
  Percent Survival: 60.6%
Table 9, A549, 30 μM
  Average Absorbance: 0.2159
  Percent Survival: 33.86%
Table 9, A549, 40 μM
  Average Absorbance: 0.0585
  Percent Survival: 9.174%
Table 9, A549, 50 μM
  Average Absorbance: 0.0047
  Percent Survival: 0.7371%
Table 9, A549, 60 μM
  Average Absorbance: 0.03173
  Percent Survival: 4.976%
Table 9, A549, 70 μM
  Average Absorbance: −0.001567
  Percent Survival: −0.2457%

## Methylene blue
Table 6, A549, 10 μM
  Average Absorbance: 2.3750
  Percent Survival: 100.5887%
Table 6, A549, 20 μM
  Average Absorbance: 2.2927
  Percent Survival: 97.1030%
Table 6, A549, 30 μM
  Average Absorbance: 2.2510
  Percent Survival: 95.3369%
Table 6, A549, 40 μM
  Average Absorbance: 1.5702
  Percent Survival: 66.5029%
Table 6, A549, 50 μM
  Average Absorbance: 0.8542
  Percent Survival: 36.1781%
Table 6, A549, 60 μM
  Average Absorbance: 1.1911
  Percent Survival: 50.4468%
Table 6, A549, 70 μM
  Average Absorbance: 0.9505
  Percent Survival: 40.2567%
Table 7, A549, linear trend from percent survival vs. concentration data, read-out: Calculated IC 50 (uM concentration)
  IC50: 56.4 µM
Table 8, A549, 10 μM
  Average Absorbance: 2.5299
  Percent Survival: 103.5613%
Table 8, A549, 20 μM
  Average Absorbance: 2.1653
  Percent Survival: 88.6365%
Table 8, A549, 30 μM
  Average Absorbance: 1.6536
  Percent Survival: 67.6900%
Table 8, A549, 40 μM
  Average Absorbance: 0.7522
  Percent Survival: 30.7913%
Table 8, A549, 50 μM
  Average Absorbance: 0.6302
  Percent Survival: 25.7972%
Table 8, A549, 60 μM
  Average Absorbance: 0.7701
  Percent Survival: 31.5240%
Table 8, A549, 70 μM
  Average Absorbance: 0.7481
  Percent Survival: 30.6234%

## NC(=O)c1ccc(N)nc1 [6-Aminonicotinamide]
Homo sapiens, A549, read-out: Calculated IC 50 (uM concentration)
  IC50: 53.1 µM
Table 6, A549, 10 μM
  Average Absorbance: 2.3742
  Percent Survival: 100.5548%
Table 6, A549, 20 μM
  Average Absorbance: 2.4321
  Percent Survival: 103.0071%
Table 6, A549, 30 μM
  Average Absorbance: 2.2814
  Percent Survival: 96.6245%
Table 6, A549, 40 μM
  Average Absorbance: 1.7213
  Percent Survival: 72.9025%
Table 6, A549, 50 μM
  Average Absorbance: 0.8618
  Percent Survival: 36.4999%
Table 6, A549, 60 μM
  Average Absorbance: 0.7739
  Percent Survival: 32.7771%
Table 6, A549, 70 μM
  Average Absorbance: 0.8536
  Percent Survival: 36.1526%
Table 8, A549, 10 μM
  Average Absorbance: 2.4711
  Percent Survival: 101.1544%
Table 8, A549, 20 μM
  Average Absorbance: 2.4672
  Percent Survival: 100.9947%
Table 8, A549, 30 μM
  Average Absorbance: 1.9896
  Percent Survival: 81.4442%
Table 8, A549, 40 μM
  Average Absorbance: 1.0963
  Percent Survival: 44.8770%
Table 8, A549, 50 μM
  Average Absorbance: 0.6485
  Percent Survival: 26.5463%
Table 8, A549, 60 μM
  Average Absorbance: 0.5811
  Percent Survival: 23.7873%
Table 8, A549, 70 μM
  Average Absorbance: 0.6294
  Percent Survival: 25.7645%

From US7759510B2, “Platinum complexes and methods of use” (University of South Florida, priority 2003, dated 2010)
